Measured values taken from US20120258156A1, “SHAPED COMPOSITIONS FOR UNIFORM DELIVERY OF A FUNCTIONAL AGENT” (priority 2011, published 2012).

conditions: salt at 5% by weight in about 10 g tablets with 75% to 95% by weight calcium hypochlorite; FIGS. 6-8
Excerpt: The amount of calcium hypochlorite within each example ranged from 75% by weight to 95% by weight, while the various salts were included at 5% by weight, if at all.

Structure (SMILES)	effect of additive on dissolution of the calcium hypochlorite
O=C([O-])[O-].[Ca+2] [calcium carbonate]	increase the rate of dissolution
O=S(=O)([O-])[O-].[Ca+2] [calcium sulfate]	slow dissolution
[Mg+2].[OH-].[OH-] [magnesium hydroxide]	slow dissolution
O=S(=O)([O-])[O-].[Mg+2] [magnesium sulfate]	slow dissolution
O=C([O-])[O-].[Na+].[Na+] [sodium carbonate]	slow dissolution
